ChEMBL document CHEMBL3763135, “Synthesis and evaluation of thiophene-based guanylhydrazones (iminoguanidines) efficient against panel of voriconazole-resistant fungal isolates” (Bioorg Med Chem, 2016)
The source made the active and inactive calls. The rule behind the calls is not given here.

Tests used:
Danio rerio [1] = organism: Danio rerio; assay: Toxicity against zebrafish embryo assessed as effect on heart beat at 10 ug/ml measured at 96 hrs post fertilization by inverted microscopic analysis; assay type: organism-based; conditions: in vivo
Danio rerio [2] = organism: Danio rerio; assay: Toxicity against zebrafish embryo assessed as effect on eyes at 5 ug/ml measured at 96 hrs post fertilization by inverted microscopic analysis; assay type: organism-based; conditions: in vivo
[3] = test system: Trichophyton mentagrophytes; assay: Antifungal activity against Trichophyton mentagrophytes DMT4 by broth dilution method; assay type: functional
Candida albicans [4] = assay: Antifungal activity against Candida albicans CA5 by broth dilution method; assay type: functional
Candida albicans [5] = assay: Antifungal activity against Candida albicans CA5 assessed as fungal growth at sub-MIC measured after 24 hrs by time-kill dependence-based spectrophotometric analysis relative to DMSO control; assay type: functional, organism-based
Danio rerio [6] = organism: Danio rerio; assay: Toxicity against zebrafish embryo assessed as effect on eyes at 10 ug/ml measured at 96 hrs post fertilization by inverted microscopic analysis; assay type: organism-based; conditions: in vivo
Danio rerio [7] = assay: Toxicity against zebrafish embryo assessed as pericardial edema at 2.5 ug/ml measured at 96 hrs post fertilization by inverted microscopic analysis; assay type: organism-based; conditions: in vivo
Danio rerio [8] = assay: Toxicity against zebrafish embryo assessed as yolk edema at 5 ug/ml measured at 96 hrs post fertilization by inverted microscopic analysis; assay type: organism-based; conditions: in vivo
Danio rerio [9] = organism: Danio rerio; assay: Toxicity against zebrafish embryo assessed as effect on blood circulation at 2.5 ug/ml measured at 96 hrs post fertilization by inverted microscopic analysis; assay type: organism-based; conditions: in vivo
Danio rerio [10] = organism: Danio rerio; assay: Toxicity against zebrafish embryo assessed as effect on heart beat at 5 ug/ml measured at 96 hrs post fertilization by inverted microscopic analysis; assay type: organism-based; conditions: in vivo
Danio rerio [11] = organism: Danio rerio; assay: Toxicity against zebrafish embryo assessed as head malformation at 10 ug/ml measured at 96 hrs post fertilization by inverted microscopic analysis; assay type: organism-based; conditions: in vivo
Danio rerio [12] = organism: Danio rerio; assay: Toxicity against zebrafish embryo assessed as teratogenic embryos at 2.5 ug/ml measured at 96 hrs post fertilization by inverted microscopic analysis; assay type: organism-based; conditions: in vivo
Danio rerio [13] = organism: Danio rerio; assay: Toxicity against zebrafish embryo assessed as teratogenic embryos at 50 ug/ml measured at 96 hrs post fertilization by inverted microscopic analysis; assay type: organism-based; conditions: in vivo
Candida albicans [14] = assay: Antibiofilm activity against Candida albicans assessed as inhibition of Spider medium-induced hyphae formation at sub-MIC after 24 hrs by propidium iodide and FITC-conjugated concanavaline A staining based fluorescence microscopy; assay type: functional, organism-based
Danio rerio [15] = organism: Danio rerio; assay: Toxicity against zebrafish embryo assessed as skeletal deformities at 2.5 ug/ml measured at 96 hrs post fertilization by inverted microscopic analysis; assay type: organism-based; conditions: in vivo
Pichia kudriavzevii [16] = assay: Antibiofilm activity against Pichia kudriavzevii ATCC 34135 assessed as disruption of preformed biofilm after 24 hrs by concanavalin A-FITC-staining based fluorescence microscopic analysis; assay type: functional
Danio rerio [17] = organism: Danio rerio; assay: Toxicity against zebrafish embryo assessed as effect on blood circulation at 10 ug/ml measured at 96 hrs post fertilization by inverted microscopic analysis; assay type: organism-based; conditions: in vivo
Danio rerio [18] = organism: Danio rerio; assay: Toxicity against zebrafish embryo assessed as normal embryos at 25 ug/ml measured at 96 hrs post fertilization by inverted microscopic analysis; assay type: organism-based; conditions: in vivo
Danio rerio [19] = organism: Danio rerio; assay: Toxicity against zebrafish embryo assessed as effect on eyes at 2.5 ug/ml measured at 96 hrs post fertilization by inverted microscopic analysis; assay type: organism-based; conditions: in vivo
Danio rerio [20] = organism: Danio rerio; assay: Toxicity against zebrafish embryo assessed as effect on notochord at 10 ug/ml measured at 96 hrs post fertilization by inverted microscopic analysis; assay type: organism-based; conditions: in vivo
Danio rerio [21] = organism: Danio rerio; assay: Toxicity against zebrafish embryo assessed as effect on notochord at 5 ug/ml measured at 96 hrs post fertilization by inverted microscopic analysis; assay type: organism-based; conditions: in vivo
Danio rerio [22] = organism: Danio rerio; assay: Toxicity against zebrafish embryo assessed as teratogenic embryos at 25 ug/ml measured at 96 hrs post fertilization by inverted microscopic analysis; assay type: organism-based; conditions: in vivo
Fusarium oxysporum = assay: Antifungal activity against Fusarium oxysporum AB18 by broth dilution method; assay type: functional
Danio rerio [23] = organism: Danio rerio; assay: Toxicity against zebrafish embryo assessed as growth retardation at 10 ug/ml measured at 96 hrs post fertilization by inverted microscopic analysis; assay type: organism-based; conditions: in vivo
[24] = Toxicity against zebrafish embryo assessed as dead embryos at 2.5 ug/ml measured at 96 hrs post fertilization by inverted microscopic analysis; assay type: organism-based, Danio rerio; conditions: read-out: Activity
Candida albicans [25] = assay: Antifungal activity against Candida albicans ATCC 10231 by broth dilution method; assay type: functional
Pichia kudriavzevii [26] = assay: Antifungal activity against Candida krusei ATCC 34135 by broth dilution method; assay type: functional
Danio rerio [27] = organism: Danio rerio; assay: Toxicity against zebrafish embryo assessed as effect on otoliths at 2.5 ug/ml measured at 96 hrs post fertilization by inverted microscopic analysis; assay type: organism-based; conditions: in vivo
[28] = Toxicity against zebrafish embryo assessed as dead embryos at 50 ug/ml measured at 96 hrs post fertilization by inverted microscopic analysis; assay type: organism-based, Danio rerio; conditions: read-out: Activity
[29] = Induction of membrane damage in PC/PS/E liposome assessed as calcein release at MIC after 30 mins by fluorescence-based liposome leakage assay; assay type: functional
Danio rerio [30] = organism: Danio rerio; assay: Toxicity against zebrafish embryo assessed as normal embryos at 10 ug/ml measured at 96 hrs post fertilization by inverted microscopic analysis; assay type: organism-based; conditions: in vivo
Danio rerio [31] = assay: Toxicity against zebrafish embryo assessed as pericardial edema at 5 ug/ml measured at 96 hrs post fertilization by inverted microscopic analysis; assay type: organism-based; conditions: in vivo
Danio rerio [32] = assay: Toxicity against zebrafish embryo assessed as yolk edema at 2.5 ug/ml measured at 96 hrs post fertilization by inverted microscopic analysis; assay type: organism-based; conditions: in vivo
[33] = Toxicity against zebrafish embryo assessed as dead embryos at 10 ug/ml measured at 96 hrs post fertilization by inverted microscopic analysis; assay type: organism-based, Danio rerio; conditions: read-out: Activity
Candida albicans [34] = assay: Induction of DNA intercalation with Candida albicans genomic DNA at 25 ug/ml after 12 hrs by ethidium bromide staining based gel electrophoresis method
[35] = Toxicity against zebrafish embryo assessed as dead embryos at 5 ug/ml measured at 96 hrs post fertilization by inverted microscopic analysis; assay type: organism-based, Danio rerio; conditions: read-out: Activity
[36] = Toxicity against zebrafish embryo assessed as dead embryos at 25 ug/ml measured at 96 hrs post fertilization by inverted microscopic analysis; assay type: organism-based, Danio rerio; conditions: read-out: Activity
Danio rerio [37] = organism: Danio rerio; assay: Toxicity against zebrafish embryo assessed as normal embryos at 50 ug/ml measured at 96 hrs post fertilization by inverted microscopic analysis; assay type: organism-based; conditions: in vivo
Danio rerio [38] = organism: Danio rerio; assay: Toxicity against zebrafish embryo assessed as skeletal deformities at 10 ug/ml measured at 96 hrs post fertilization by inverted microscopic analysis; assay type: organism-based; conditions: in vivo
Danio rerio [39] = organism: Danio rerio; assay: Toxicity against zebrafish embryo assessed as skeletal deformities at 5 ug/ml measured at 96 hrs post fertilization by inverted microscopic analysis; assay type: organism-based; conditions: in vivo
Danio rerio [40] = organism: Danio rerio; assay: Toxicity against zebrafish embryo assessed as unhatched embryos at 5 ug/ml measured at 96 hrs post fertilization by inverted microscopic analysis; assay type: organism-based; conditions: in vivo
MRC5 = assay: Cytotoxicity against human MRC5 cells after 48 hrs by MTT assay; assay type: cell-based; conditions: MRC5, 48 h
Danio rerio [41] = organism: Danio rerio; assay: Toxicity against zebrafish embryo assessed as effect on tail tip at 10 ug/ml measured at 96 hrs post fertilization by inverted microscopic analysis; assay type: organism-based; conditions: in vivo
Danio rerio [42] = organism: Danio rerio; assay: Toxicity against zebrafish embryo assessed as normal embryos at 5 ug/ml measured at 96 hrs post fertilization by inverted microscopic analysis; assay type: organism-based; conditions: in vivo
[43] = Toxicity against zebrafish embryo measured at 96 hrs post fertilization by inverted microscopic analysis; assay type: organism-based, Danio rerio; conditions: zebrafish embryos
Danio rerio [44] = organism: Danio rerio; assay: Toxicity against zebrafish embryo assessed as effect on tail tip at 5 ug/ml measured at 96 hrs post fertilization by inverted microscopic analysis; assay type: organism-based; conditions: in vivo
Aspergillus fumigatus = assay: Antifungal activity against Aspergillus fumigatus ATCC 13073 by broth dilution method; assay type: functional

Cl.N=C(N)N/N=C/c1ccc(-c2ccc(Br)cc2)s1
Activity (Danio rerio [1]): 0%
Activity (Danio rerio [2]): 0%
MIC [3]: 0.97 mg/L
MIC (Candida albicans [4]): 1.56 mg/L
Activity (Candida albicans [5]): inactive
Activity (Danio rerio [6]): 0%
Activity (Danio rerio [7]): 0%
Activity (Danio rerio [8]): 0%
Activity (Danio rerio [9]): 0%
Activity (Danio rerio [10]): 0%
Activity (Danio rerio [11]): 0%
Activity (Danio rerio [12]): 0%
Activity (Danio rerio [13]): 0%
Activity (Candida albicans [14]): Active
Activity (Danio rerio [15]): 0%
MBEC (Pichia kudriavzevii [16]): 125 µg/mL
Activity (Danio rerio [17]): 0%
Activity (Danio rerio [18]): 0%
Activity (Danio rerio [19]): 0%
Activity (Danio rerio [20]): 0%
Activity (Danio rerio [21]): 0%
Activity (Danio rerio [22]): 26.67%
MIC (Fusarium oxysporum): 3.9 mg/L
Activity (Danio rerio [23]): 0%
mortality at 96 h, 2.5 ug/ml [24]: 0%
MIC (Candida albicans [25]): 3.12 mg/L
MIC (Pichia kudriavzevii [26]): 1.56 mg/L
Activity (Danio rerio [27]): 0%
mortality at 96 h, 50 ug/ml [28]: 100%
Activity [29]: 7%
Activity (Danio rerio [30]): 46.67%
Activity (Danio rerio [31]): 11.11%
Activity (Danio rerio [32]): 0%
mortality at 96 h, 10 ug/ml [33]: 30%
Activity (Candida albicans [34]): Active
mortality at 96 h, 5 ug/ml [35]: 10%
mortality at 96 h, 25 ug/ml [36]: 73.3%
Activity (Danio rerio [37]): 0%
Activity (Danio rerio [38]): 0%
Activity (Danio rerio [39]): 0%
Activity (Danio rerio [40]): 0%
IC50 (MRC5): 2 mg/L
Activity (Danio rerio [41]): 0%
Activity (Danio rerio [42]): 80%
LC50 at 96 h [43]: 14.1 mg/L
Activity (Danio rerio [44]): 0%
MIC (Aspergillus fumigatus): 6.25 mg/L
